Data on 14 compounds can be found in paper PMC6036174 (Frontiers in Microbiology, 2018).

For series [1], the system named is M. tuberculosis H37Rv (ATCC 27294). As to the kind of experiment: resazurin microtiter assay, MIC against M. tuberculosis H37Rv. The settings on record: 7 days 37°C, 90% inhibition of growth. The series is classed as cell-based, Mycobacterium tuberculosis. In general terms: Alamar Blue is a resazurin reagent that responds to reducing activity.
Series [2] deals with M. tuberculosis CDC1551. Nature of the series: broth tube MIC (visible pellet) against M. tuberculosis CDC1551. It counts as cell-based, Mycobacterium tuberculosis. Particulars: M. tuberculosis CDC1551, 14 days 37°C, no visible pellet; for MIC: read-out: MIC100.
Series [3] relates to M. smegmatis cells. Also noted: method as in Wei et al., [2003]. Particulars: ref Wei et al., [2003]; cited from earlier work.
Series [4] in a line: A549 cell cytotoxicity (MTT). Particulars: human, A549 lung epithelial cells.
Series [5] in a line: VERO cell cytotoxicity (resazurin). Particulars: African green monkey, VERO (ATCC CCL-81) normal epithelial cells.
Series [6] deals with M. tuberculosis H37Rv. Particulars: cited from earlier work.
Details of series [7]: method as in Poggi et al. ([2013]). Particulars: descriptive; ref Poggi et al. ([2013]); cited from earlier work.
Series [8] deals with G. mellonella larvae. As to the kind of experiment: in vivo toxicity in Galleria mellonella larvae. The settings on record: for % Mortality: 72 h post-injection; for In vivo G. mellonella tolerance order in μmol / In vivo G. mellonella tolerance order in μmol (Normalized against no. of phens): rank; for In vivo G. mellonella tolerance order in μmol: 1st = best tolerated, from Table 2; for In vivo G. mellonella tolerance order in μmol (Normalized against no. of phens): normalized with respect to phen content. On the procedure:
G. mellonella larvae in the 6th developmental stage were used to determine the in vivo cytotoxicity of the test complexes (Kellett et al., [2011]; Desbois and Coote, [2012]; McCann et al., [2012]). Thirty healthy larvae, each weighing between 0.2 and 0.4 g and with no cuticle discolouration, were used for each experiment. Fresh solutions of the test complexes were prepared immediately prior to testing under sterile conditions. Test compounds (0.05 g) were dissolved in DMSO (1 mL) and added to sterile water (9 mL) to give a stock solution/suspension (5,000 μg/mL). Test solutions/suspensions were prepared from the corresponding stock solution using Millipore water only to dilute to the desired concentration and each compound was screened across the concentration range of 5,000–100 mg/L. Test solutions/suspensions (20 μL) were administered to the larvae by injection directly into the haemocoel through the last pro-leg. The base of the pro-leg can be opened by applying gentle pressure to the sides of the larvae and this aperture will re-seal after removal of the syringe without leaving a scar. Larvae were placed in sterile Petri dishes and incubated at 30°C for 72 h. The survival of the larvae was monitored every 24 h. Death was assessed by the lack of movement in response to stimulus together with discolouration of the cuticle. Three controls were employed in all assays. The first consisted of untouched larvae maintained at the same temperature as the test larvae. The second was larvae with the pro-leg pierced with an inoculation needle but no solution injected. The third control was larvae that were inoculated with 20 μL of sterile water.

Series [9] has as its system MDR ATCC 49967. Set-up: method as in Hoffman et al., [2013]. Particulars: ref Hoffman et al., [2013]; cited from earlier work.
Series [10] deals with M. tuberculosis. Also noted: method as in Oliveira et al., [2004]. The settings on record: based on Na3[Fe(CN)5(INH)]·4H2O; ref Oliveira et al., [2004]; cited from earlier work.
Series [11] concerns mammalian cancer cells. Also noted: method as in Oliveira et al., [2004]. Particulars: ref Oliveira et al., [2004], read-out: IC50 cytotoxicity; cited from earlier work.
Series [12] can be described thus: solubility in water (descriptive). It counts as physicochemical.
The test system of series [13] is A549 lung epithelial cells. As to the kind of experiment: A549 cell cytotoxicity (MTT). Particulars: 48 h incubation, MTT, called CC50 in methods.
Series [14] relates to VERO (ATCC CCL-81) normal epithelial cells. Nature of the series: VERO cell cytotoxicity (resazurin). Particulars: 24 h incubation, called CC50 in methods.
[15] abbreviates: Mycobacterium tuberculosis, 168 h, read-out: MIC90.
[16] abbreviates: Mycobacterium tuberculosis, 336 h.
Where [17] appears, read: M. tuberculosis H37Rv, ref Hoffman et al., [2013].
The mark [18] stands for this setting: M. tuberculosis H37Rv, ref Poggi et al. ([2013]).
Setting [19] is: M. tuberculosis H37Rv, ref Oliveira et al., [2014].
Where [20] appears, read: H37Rv, ref Segura et al. ([2014]).
Setting [21] is: 40 μg per larvae (133.33 mg/kg).
Where [22] appears, read: 100 μg per larvae (333.33 mg/kg).

“And” between values parts separate entries of the source, which are not always exact repeats. Equal entries are not always repeated. Where two headings read alike, the source gives them in different places.

`NNC(=O)c1ccncc1` [INH, Isoniazid, reference compound]: the MIC90 (as a rule, an inhibitory concentration at the 90% level, which refers to growth in some studies and to a panel of isolates in others) in series [1] (setting [15]) is 0.44 µM and 0.06 µg/mL. The MIC in series [2] (setting [16]) was 0.44 µM and 0.06 µg/mL; in series [3], > 30 mg/mL and > 218.76 mM. Further, in series [4], the concentration for half-maximal inhibition (IC50) – broadly, the concentration that gives 50% inhibition – at 48 h is 319 µg/mL and 2.33 mM. In addition, in series [5], the 50% inhibitory concentration (IC50) at 24 h is 333 µg/mL and 2.43 mM.
With `O=P([O-])(O)OP(=O)([O-])O.[Co+2].c1cnc2c(c1)ccc1cccnc12.c1cnc2c(c1)ccc1cccnc12` [[Co(phen)2(H2P2O7)]], the MIC in [6] (setting [17]) was 2.05 µM.
In the case of `NNC(=O)c1ccncc1.O.O.O.O=S(=O)([O-])[O-].[Cu+2]` [[Cu(INH)(H2O)]SO4·2H2O], the MIC in series [6] (setting [18]) was 2.2 µM. The solubility in water entry in [7] is given as “only very sparingly soluble in water”.
Consider `O.O=P([O-])(O)OP(=O)([O-])O.[Cu+2].c1cnc2c(c1)ccc1cccnc12` [[Cu(phen)(H2O)(H2P2O7)]], for which the MIC in series [6] (setting [17]) was 71.53 µM.
Consider `CNC(=S)N/N=C(\C)c1ccccn1.CNC(=S)N/N=C(\C)c1ccccn1.[Mn+2]` [[Mn(atc-Me)2]], for which the MIC in series [6] (setting [19]) is 50.69 µM.
Regarding `C/C(=N\NC(=S)Nc1ccccc1)c1ccccn1.C/C(=N\NC(=S)Nc1ccccc1)c1ccccn1.[Mn+2]` [[Mn(atc-Ph)2]], the MIC in series [6] (setting [19]) was 1.31 µM.
Consider `NC(N)=S.NC(N)=S.O=S(=O)([O-])C(F)(F)F.O=S(=O)([O-])C(F)(F)F.[Ag+].[Ag+].c1cnc2c(c1)ccc1cccnc12.c1cnc2c(c1)ccc1cccnc12` [[{Ag(phen)(μ-tu)}2]X2 (X = CF3 SO3-), [{Ag(phen)(μ-tu)}2]X2], for which the MIC in series [6] (setting [20]) was 14.2 µM.
`NC(N)=S.NC(N)=S.O=[N+]([O-])[O-].O=[N+]([O-])[O-].[Ag+].[Ag+].c1cnc2c(c1)ccc1cccnc12.c1cnc2c(c1)ccc1cccnc12` [[{Ag(phen)(μ-tu)}2]X2 (X = NO3-), [{Ag(phen)(μ-tu)}2]X2]: in [6] (setting [20]), the MIC was 11.0 µM.
In the case of `c1cnc2c(c1)ccc1cccnc12` [phen, 1,10-phenanthroline, reference compound], in series [1] (setting [15]), the MIC90 is 11.2 µg/mL and 61.9 µM. The MIC in series [2] (setting [16]) was 3 µg/mL and 16.6 µM. Besides, the “% Mortality” value in series [8] (10 μg per larvae (33.33 mg/kg)) amounted to 0%; in [8] (20 μg per larvae (66.67 mg/kg)), 80%; in series [8] (setting [21]), 80%; in [8] (setting [22]) it was 100%. Further, in [8] (highest administered concentration 0.1 mg (333 mg/kg) per larvae), the larvae survived entry was “all of the larvae injected at this concentration with phen died”. For the same compound, the “In vivo G. mellonella tolerance order in μmol” value in [8] is reported as 5th. The “In vivo G. mellonella tolerance order in μmol (Normalized against no. of phens)” value in series [8] is reported as 4th. Moreover, the concentration for half-maximal inhibition (IC50) at 48 h in series [4] is 4.3 µg/mL and 23.9 µM. The 50% inhibitory concentration (IC50) at 24 h in [5] is > 10 µg/mL and > 55.5 µM.
Regarding `O=P([O-])([O-])OP(=O)([O-])[O-].[Co+2].[Co+2].c1cnc2c(c1)ccc1cccnc12.c1cnc2c(c1)ccc1cccnc12.c1cnc2c(c1)ccc1cccnc12.c1cnc2c(c1)ccc1cccnc12` [{[Co(phen)2]2(μ-P2O7)}], the MIC in series [9] was 2.41 µM.
On to `O=P([O-])([O-])OP(=O)([O-])[O-].[Cu+2].[Cu+2].c1cnc2c(c1)ccc1cccnc12.c1cnc2c(c1)ccc1cccnc12` [{[Cu(phen)]2(μ-P2O7)}], for which the MIC in [9] was 2.80 µM.
As to [CoCl(INH)2(H2O)]Cl·2.5H2O, in series [6] (setting [18]), the MIC was 0.41 µM. In addition, the solubility in water result in series [7] was “only very sparingly soluble in water”.
Consider [Fe(CN)5(INH)]^3−, for which the MIC in series [10] is 0.43 µM. The 50% inhibitory concentration (IC50) in series [11] is over 54 µM.
Regarding “{[Mn(3,6,9-tdda)(phen)2]·3H2O·EtOH}n [compound 3]”, the results for the MIC90 in series [1] and in series [1] (read-out: MIC90) were 0.56 mg/L and 0.76 µM, respectively. Further, the MIC100 in [2] was 0.75 µg/mL. For the same compound, the MIC in series [2] is recorded as 1.02 µM. The “% Mortality” value amounted to 0% in series [8] (10 μg per larvae (33.33 mg/kg)), 50% in [8] (20 μg per larvae (66.67 mg/kg)), 80% in [8] (setting [21]) and 90% in series [8] (setting [22]). The “In vivo G. mellonella tolerance order in μmol” value in [8] amounted to 2nd. Also, in series [8], the “In vivo G. mellonella tolerance order in μmol (Normalized against no. of phens)” value is given as 2nd. Further, the solubility in water entry in series [12] is “water-soluble”. For the same compound, the “Cytotoxicity IC50 A549 cells” value in [13] turned out to be 261.67 µg/mL. Also, the half-maximal inhibitory concentration (IC50) in series [13] (read-out: Cytotoxicity IC50 A549 cells) turned out to be 356 µM; in series [14] (read-out: Cytotoxicity IC50 VERO cells), 85 µM. The “Cytotoxicity IC50 VERO cells” value in [14] is 62.5 µg/mL.
